# Numbered stars: 1 amine (or outer) side, 2 acyl side, 3 side chain; on linkers, the order of the positions; unused ones are H or OH. Bridge positions count the residues as written; N and C are the ends. Square brackets hold non-standard residues; d marks the D form. Ends that are not written are not given here. Peptide text beside a SMILES is read from it. BMA = bismethylene aryl moiety linked through two thioether bonds; CH2(3,3'-bipyridine-6,6')CH2 = c1cc(C[*:1])ncc1-c1ccc(C[*:2])nc1; Biphenyl(4,4'-CH2)2 = c1cc(-c2ccc(C[*:2])cc2)ccc1C[*:1]
# Assays:
# Mcl-1 [1] = target: Mcl-1 (Mus musculus, UniProt P97287); conditions: background literature; read-out: IC50 against Mcl-1; cited from earlier work
# Chain of Mcl-1 (Mus musculus, UniProt P97287) (P97287 152-308 limits assumed): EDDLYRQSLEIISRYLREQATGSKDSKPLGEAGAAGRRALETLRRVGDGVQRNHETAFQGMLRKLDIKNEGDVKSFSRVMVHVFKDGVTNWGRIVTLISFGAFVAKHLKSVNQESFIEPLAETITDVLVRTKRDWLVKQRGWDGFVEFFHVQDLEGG
# [2] = target: T1, full-length human MDMX (GST-MDMX) (Homo sapiens, UniProt O15151); experiment: ELISA, inhibition of p53-MDMX interaction; type: binding; conditions: relative to linear counterpart 3
# T1 construct: GST-MDM2 and GST-MDMX containing full-length human MDM2 and MDMX; made in house; host or cells: Escherichia coli
# T1 sequence (O15151 1-490): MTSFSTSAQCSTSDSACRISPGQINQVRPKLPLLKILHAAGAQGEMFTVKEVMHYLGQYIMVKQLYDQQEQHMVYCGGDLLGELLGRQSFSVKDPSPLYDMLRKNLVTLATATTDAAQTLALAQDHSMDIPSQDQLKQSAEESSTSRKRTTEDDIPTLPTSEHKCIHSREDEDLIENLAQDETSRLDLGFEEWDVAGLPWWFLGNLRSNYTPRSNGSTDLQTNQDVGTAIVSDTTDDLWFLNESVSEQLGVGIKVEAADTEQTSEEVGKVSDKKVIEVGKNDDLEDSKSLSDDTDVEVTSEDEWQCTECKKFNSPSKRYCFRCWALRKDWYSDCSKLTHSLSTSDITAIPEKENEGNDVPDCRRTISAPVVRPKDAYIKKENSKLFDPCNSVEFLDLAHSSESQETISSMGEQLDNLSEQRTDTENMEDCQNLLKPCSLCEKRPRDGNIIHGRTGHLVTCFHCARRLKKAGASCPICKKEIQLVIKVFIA
# Description: FIG. 10. ELISA data of the cross-linked PDI analogs. The experiments were repeated three times and the resulting data were plotted with GraphPad Prism 5.0 to derive the average IC50 values along with standard deviations.
# ELISA Assay. GST-MDM2 and GST-MDMX containing full-length human MDM2 and MDMX and His6-tagged human p53 were expressed in Escherichia coli and purified by glutathione agarose and Ni^2+-nitrilotriacetic acid beads, respectively, under non-denaturing conditions. Microtiter plates were coated with 2.5 μg/ml His6-p53 in PBS buffer for 16 hours. After washing with PBS containing 0.1% Tween-20 (PBST), the plates were blocked with PBST containing 5% nonfat dry milk (PBSTM) for 30 minutes. Peptides were dissolved in DMSO. GST-MDM2 and MDMX (5 μg/ml) were mixed with peptides in PBSMT containing 10% glycerol and 10 mM dithiolthreitol prior to their additions to the wells at the specified concentrations. The incubation was allowed to proceed for 1 hour at room temperature before the plates were washed with PBST. […] The plates were developed by incubation with TMB peroxidase substrate (KPL, Gaithersburg, Md.) and measured by absorbance at 450 nm. The data was analyzed with the Origin 6.0 software. […]
# GST-Bcl-xL = GST-Bcl-xL (Homo sapiens, UniProt Q07817); experiment: FP binding affinity of fluorescein-labeled peptides, Bcl-xL
# Chain of GST-Bcl-xL (Q07817 whole entry): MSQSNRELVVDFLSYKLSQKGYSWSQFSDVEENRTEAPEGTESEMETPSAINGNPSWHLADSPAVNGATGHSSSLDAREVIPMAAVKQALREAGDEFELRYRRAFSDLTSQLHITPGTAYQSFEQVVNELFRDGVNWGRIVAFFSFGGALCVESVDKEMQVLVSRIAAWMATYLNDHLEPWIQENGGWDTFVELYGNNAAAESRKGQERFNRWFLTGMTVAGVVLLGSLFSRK
# HeLa cells [3] = experiment: FACS analysis of cell permeability of fluorescein-conjugated peptides; type: cell-based; conditions: 10 μM fluorescein-conjugated peptide, 2 h
# Procedure: FACS Analysis. HeLa Cells were cultured in DMEM medium supplemented with 10% fetal bovine serum in 6-well plate in a 37° C., 5% CO2 incubator to reach confluency of around 70%. The cells were then washed twice with PBS before switching to serum-free DMEM medium. After standing in the incubator for 30 minutes, appropriate amounts of peptides (1 mM in DMSO) were added to the culture plate to obtain a final peptide concentration of 10 μM. Cells were incubated at 37° C. for additional 2 hrs. Then the medium was removed and the cells were washed with PBS (3×) followed by treatment with trypsin to detach the cells. After a brief low-speed centrifugation, the HeLa cells were collected and re-suspended in PBS for the FACS analysis.
# HeLa cells [4] = experiment: Cell viability assay (CellTiter-Glo, ATP) and DIC imaging, cytotoxicity; type: cell-based; conditions: 10 μM, 2 hours; DIC channel and ATP assay
# Procedure: FIG. 8. (a) Confocal images of fixed HeLa cells after treatment with 10 μM of fluorescein-conjugated peptides for 2 hours. Scale bar=50 μm. (b) Cell viability assay using the CellTiter-Glo reagent.
# Cell Viability Assay. HeLa cells were seeded into an opaque 96-well plate at a density of 1×10^4 per well in 100 μL DMEM medium supplemented with 10% FBS and the cells were allowed to grow in a 37° C. 5% CO2 incubator for 48 hrs to reach confluency of around 80%. Prior to the compound treatment, the medium was replaced with serum-free medium and the cells were incubated for 30 minutes. Appropriate amounts of peptides (1 mM in DMSO) were then added to obtain a final concentration of 10 μM and the cells were incubated at 37° C. for 2 hours. Afterwards, the plate was allowed to stand at room temperature for 30 minutes before 100 μL of Cell-Titer Glow reagent (Promega) was added. The plate was incubated at room temperature for 10 minutes. The luminescence signals were recorded with an FLX 800 luminescence plate reader (BioTek). The plotted data represented the average of the readings from 4 separate wells.
# [5] = Circular dichroism, percent helicity; type: physicochemical; conditions: compared to the linear NoxaBH3 peptide, 50 μM in 20% ACN/H2O
# Procedure: FIG. 12. […] The peptides were dissolved in 20% ACN/H2O for a final concentration of 50 μM.
# Circular Dichroism Study. […] The spectra were recorded in the wavelength range of 190-250 nm and averaged over 3 scans with a resolution of 0.5 nm, a bandwidth of 1.0 nm and a response time of 4 s. The sensitivity and the speed of the spectrometer were set to 100 mdeg and 50 nm/min, respectively. All peptides were dissolved in 20% acetonitrile/H2O to reach final concentration of 50 μM.
# Mcl-1 [6] = target: Mcl-1 (Homo sapiens, UniProt Q07820); experiment: ELISA of cross-linked Noxa peptides; type: binding
# Chain of Mcl-1 (Homo sapiens, UniProt Q07820) (Q07820 whole entry, species assumed): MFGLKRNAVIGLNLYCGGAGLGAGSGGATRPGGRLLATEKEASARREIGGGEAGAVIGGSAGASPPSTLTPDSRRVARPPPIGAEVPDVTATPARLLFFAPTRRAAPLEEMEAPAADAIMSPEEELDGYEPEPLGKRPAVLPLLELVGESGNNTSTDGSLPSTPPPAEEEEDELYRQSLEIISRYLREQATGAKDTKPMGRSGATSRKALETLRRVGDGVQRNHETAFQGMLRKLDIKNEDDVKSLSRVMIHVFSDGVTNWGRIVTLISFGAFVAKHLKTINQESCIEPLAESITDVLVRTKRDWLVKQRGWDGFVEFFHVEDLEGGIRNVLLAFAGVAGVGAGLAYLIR
# GST-Mcl-1 = GST-Mcl-1 (Homo sapiens, UniProt Q07820); experiment: Competitive fluorescence polarization assay; type: binding; conditions: for IC50: Noxa peptides, three repeats ± SD, read-out: FP, IC50
# Chain of GST-Mcl-1 (Q07820 whole entry): as the sequence (Q07820 whole entry, species assumed) above
# Procedure: Competitive Florescence Polarization Assay. The binding affinity of the Noxa peptides toward GST-Mcl-1 was determined in a competitive fluorescence polarization assay with the fluorescein-labeled Bak or Bim. Briefly, fluorescein-labeled Bak was incubated with GST-Mcl-1 in a binding buffer (PBS, 0.005% Tween-20, pH7.4) at room temperature in a 96-well microtiter plate. […] The reading was repeated at various time points to ensure that the competition has reached equilibrium.
# chymotrypsin = chymotrypsin (Bos taurus, UniProt P00766); experiment: Chymotrypsin proteolytic stability assay; conditions: cattle (bovine), chymotrypsin (Type II, Sigma) in NH4HCO3 buffer, pH 8
# Procedure: Proteolytic stability of the linear and stapled Noxa peptides against trypsin (Type IX-S, 13,000-20,000 unit/mg, Sigma) and chymotrypsin (Type II, 40 unit/mg, Sigma). To a solution of 400 μL of 0.25 mM peptide in NH4HCO3 buffer, pH 8.0, was added 80 μL trypsin (5 μg/mL) or chymotrypsin (25 μg/mL), and the resulting solution was incubated at 37° C. At the indicated times, 40 μL of the solution was transferred to 40 μL trifluoroacetic acid to quench the reaction. The samples were analyzed by reverse-phase HPLC using benzophenone as an injection control.
compound,measurement,setting,value
"NoxaB-(68-93): BH3 peptide derived from mouse Noxa (PADLKDECAQLRRIGDKVNLRQKLLN; UniProt Q9JM54 68-93, looked up, fragment)",IC50,Mcl-1 [1],109 nM
"NoxaA-(16-41): BH3 peptide derived from mouse Noxa (RAELPPEFAAQLRKIGDKVYCTWSAP; UniProt Q9JM54 16-41, looked up, fragment)",IC50,Mcl-1 [1],87 nM
"CC(=O)N[C@@H](CC(C)C)C(=O)N[C@H](C(=O)N[C@@H](Cc1ccccc1)C(=O)N[C@@H]1CSCc2ccc(cc2)-c2ccc(cc2)CSC[C@@H](C(=O)N[C@@H](CO)C(N)=O)NC(=O)[C@H](CC(C)C)NC(=O)[C@H](CCC(N)=O)NC(=O)[C@H](C)NC(=O)[C@H](Cc2c[nH]c3ccccc23)NC(=O)[C@H](Cc2ccc(O)cc2)NC(=O)[C@H](Cc2c[nH]cn2)NC1=O)[C@@H](C)O [Peptide 3a, LTFc′HYWAQLC′S] (Ac-LTF[dC]HYWAQLCS-NH2; linker 4-11 via Biphenyl(4,4'-CH2)2)",increase in MDMX activity,[2],15 fold
CC[C@H](C)[C@H](NC(=O)[C@H](CCCNC(=N)N)NC(=O)[C@H](CCCNC(=N)N)NC(=O)[C@H](CC(C)C)NC(=O)[C@H](CCC(N)=O)NC(=O)[C@H](C)NC(=O)[C@H](C)NC(=O)CCCCCNC(=S)Nc1ccc2c(c1)C(=O)OC21c2ccc(O)cc2Oc2cc(O)ccc21)C(=O)NCC(=O)N[C@@H](CC(=O)O)C(=O)N[C@@H](CCCCN)C(=O)N[C@H](C(=O)N[C@@H](CC(N)=O)C(=O)N[C@@H](CC(C)C)C(=O)N[C@@H](CCCNC(=N)N)C(=O)N[C@@H](CCC(N)=O)C(=O)N[C@@H](CCCCN)C(=O)N[C@@H](CC(C)C)C(=O)N[C@@H](CC(C)C)C(=O)N[C@@H](CC(N)=O)C(N)=O)C(C)C [Fl-NoxaB^75-93-C75A],Kd,GST-Bcl-xL,> 2000 nM
"LTFCRYWARLCS (LTFCRYWARLCS-NH2; linker 4-11 via BMA (inferred); not fully specified) [Peptide 2, linear arginine-substituted dicysteine PDI analog]",increase in mean fluorescence / permeability by arginine substitution,HeLa cells [3]; compared to charge-neutral counterpart,2.5 fold
"CC(=O)N[C@@H](CC(C)C)C(=O)N[C@H](C(=O)N[C@@H](Cc1ccccc1)C(=O)N[C@H]1CSCc2ccc(cn2)-c2ccc(nc2)CSC[C@@H](C(=O)N[C@@H](CO)C(N)=O)NC(=O)[C@H](CC(C)C)NC(=O)[C@H](CCC(N)=O)NC(=O)[C@H](C)NC(=O)[C@H](Cc2c[nH]c3ccccc23)NC(=O)[C@H](Cc2ccc(O)cc2)NC(=O)[C@H](Cc2c[nH]cn2)NC1=O)[C@@H](C)O [Peptide 1b, LTFC″HYWAQLC″S] (Ac-LTFCHYWAQLCS-NH2; linker 4-11 via CH2(3,3'-bipyridine-6,6')CH2; C-terminus assumed)",increase in mean fluorescence by Bpy cross-linking,HeLa cells [3]; over linear counterpart,~6 fold
same,cytotoxicity,HeLa cells [4],did not show any cytotoxicity
CC(=O)N[C@@H](CC(C)C)C(=O)N[C@H](C(=O)N[C@@H](Cc1ccccc1)C(=O)N[C@@H](CS)C(=O)N[C@@H](Cc1c[nH]cn1)C(=O)N[C@@H](Cc1ccc(O)cc1)C(=O)N[C@@H](Cc1c[nH]c2ccccc12)C(=O)N[C@@H](C)C(=O)N[C@@H](CCC(N)=O)C(=O)N[C@@H](CC(C)C)C(=O)N[C@@H](CS)C(=O)N[C@@H](CO)C(N)=O)[C@@H](C)O [Peptide 1] (Ac-LTFCHYWAQLCS-NH2),cell penetration,HeLa cells [3]; relative to DMSO control,minimal cell penetration
"CC(=O)N[C@@H](CC(C)C)C(=O)N[C@H](C(=O)N[C@@H](Cc1ccccc1)C(=O)N[C@@H]1CSCc2ccc(cn2)-c2ccc(nc2)CSC[C@@H](C(=O)N[C@@H](CO)C(N)=O)NC(=O)[C@H](CC(C)C)NC(=O)[C@H](CCC(N)=O)NC(=O)[C@H](C)NC(=O)[C@H](Cc2c[nH]c3ccccc23)NC(=O)[C@H](Cc2ccc(O)cc2)NC(=O)[C@H](Cc2c[nH]cn2)NC1=O)[C@@H](C)O [Peptide 3b, LTFc″HYWAQLC″S] (Ac-LTF[dC]HYWAQLCS-NH2; linker 4-11 via CH2(3,3'-bipyridine-6,6')CH2)",increase in MDMX activity,[2],24 fold
same,cytotoxicity,HeLa cells [4],did not show any cytotoxicity
CC[C@H](C)[C@@H]1NC(=O)[C@H](CCCNC(=N)N)NC(=O)[C@H](CCCNC(=N)N)NC(=O)[C@H](CC(C)C)NC(=O)[C@@H](NC(=O)[C@H](C)NC(=O)[C@H](C)NC(C)=O)CSCc2ccc(cc2)-c2ccc(cc2)CSC[C@@H](C(=O)N[C@H](C(=O)N[C@@H](CC(N)=O)C(=O)N[C@@H](CC(C)C)C(=O)N[C@@H](CCCNC(=N)N)C(=O)N[C@@H](CCC(N)=O)C(=O)N[C@@H](CCCCN)C(=O)N[C@@H](CC(C)C)C(=O)N[C@@H](CC(C)C)C(=O)N[C@@H](CC(N)=O)C(N)=O)C(C)C)NC(=O)[C@H](CC(=O)O)NC(=O)CNC1=O [Peptide 5a],enhancement in percent helicity,[5],roughly 2 fold
same,IC50,Mcl-1 [6],75 nM
same,IC50,GST-Mcl-1,18 ± 6 nM
same,increase in activity in FPA,GST-Mcl-1; compared to the parent linear peptide,67 fold
CC[C@H](C)[C@@H]1NC(=O)[C@H](CCCNC(=N)N)NC(=O)[C@H](CCCNC(=N)N)NC(=O)[C@H](CC(C)C)NC(=O)[C@@H](NC(=O)[C@H](C)NC(=O)[C@H](C)NC(C)=O)CSCc2ccc(cn2)-c2ccc(nc2)CSC[C@@H](C(=O)N[C@H](C(=O)N[C@@H](CC(N)=O)C(=O)N[C@@H](CC(C)C)C(=O)N[C@@H](CCCNC(=N)N)C(=O)N[C@@H](CCC(N)=O)C(=O)N[C@@H](CCCCN)C(=O)N[C@@H](CC(C)C)C(=O)N[C@@H](CC(C)C)C(=O)N[C@@H](CC(N)=O)C(N)=O)C(C)C)NC(=O)[C@H](CC(=O)O)NC(=O)CNC1=O [Peptide 5b],enhancement in percent helicity,[5],roughly 2 fold
same,IC50,Mcl-1 [6],25 nM
same,IC50,GST-Mcl-1,45 ± 9 nM
same,half-life at 0.208 mM,chymotrypsin,22 min
